# Data published in US20050119301A1, “Treatment of restenosis” (priority 2001, published 2005).
# Key:
# [1] = system: rat isolated aortic rings; assay: Vasodilatory capacity in noradrenaline pre-constricted aortic rings and mechanism of action (Protocol 2a/2b); conditions: for vasodilatory response: effect of high KCl levels: KCl 40 mM; for vasodilatory response: effect of ODQ: ODQ 10 μM; for vasodilatory response: effect of removal of the endothelium: denuded vs intact endothelium; for vasodilatory response: effect of indomethacin: indomethacin 10 μM; for vasodilatory response: effect of nitro-L-arginine (NOLA): NOLA 10 μM
# Method: Male Sprague-Dawley rats (250±50 g) were gassed with 80% CO2 and 20% O2 until killed. The thoracic aorta was excised and quickly placed in ice-cold Krebs modified solution composed of NaCl […], […] 4.7 mM, MgSO4 7H2O 1.17 mM, NaHCO3 25 mM, KH2PO4 1.18 mM, CaCl2 2.5 mM, glucose 11 mM and EDTA 0.03 mM. It was then trimmed of fat and connective tissue and cut into 2-3 mm wide rings. Each ring was mounted on two parallel stainless steel hooks in a single water-jacketed 3 ml organ bath containing modified Krebs solution maintained at 37° C. and bubbled with 95% O2 plus 5% CO2. The lower hook was attached to a movable support leg and the upper hook to an FTO3 force transducer (Grass Scientific Instruments, Mitutoyo, Japan) for isometric recordings. Changes in force were amplified (Quadbridge amplifier, Scientific Concepts Inc., Victoria, Australia) and recorded on a MacLab 8E data acquisition system (Adinstruments Pty Ltd., NSW, Australia) linked to an Apple computer (Apple Computer Inc, Cupertina, Calif.). Rings were set at an initial tension of 2 g and allowed to equilibrate for 30 minutes after which time they were re-set to 2 g tension before the commencement of each experimental protocol.
# A full concentration response to noradrenaline was obtained. From this the concentration producing a submaximal contraction of approximately 80% was selected (0.03-0.3 μM). The ring was then constricted with this submaximal concentration and allowed to plateau before full concentration-relaxation curves were obtained to β-estradiol and Cpds. 5, 7, 8 and 12 and the vehicle DMSO (at equi-volume). Only one compound was studied with any one ring from any one animal.
# Full relaxation curves were obtained to Cpds. 5, 7, 8 and 12 and β-estradiol in the absence and presence of the endothelium (rings were denuded of endothelium by gentle rotation of the lumen against a rough surface), the nitric oxide synthase inhibitor nitro-L-arginine (NOLA 10 μM; with the exception of Cpd. 8, due to limited supply of the compound), KCl 40 mM (to inhibit endothelium derived hyperpolarising factor), the cyclo-oxygenase inhibitor indomethacin (10 μM) and the soluble guanylate cyclase inhibitor 1H-[1,2,4]oxadiazolo[4,3-a]quinoxalin-1-one (ODQ; 10 μM). Only one compound with only one intervention was tested on any one ring from any one animal.
# Contractile responses are expressed in g tension (mean+standard error of the mean). Dilatory responses are expressed as a percentage of the contractile force generated by the pre-constricting agent used. Individual concentration-response curves for noradrenaline and acetylcholine±the interventions used were fitted to a logistic equation of the form […] where E is the response, M is the maximum response and K is the concentration eliciting 50% of the maximum response (ie neg log EC50).
# LDL receptor [2] = assay: LDL receptor expression on HepG2 cells, [125I]-LDL specific binding; format: cell-based, human; conditions: for LDL receptor expression, Experiment 3 / LDL receptor expression, Experiment 2 / LDL receptor expression, Experiment 1: 48 hours; for LDL receptor expression, Experiment 3: control 130 ± 18; for LDL receptor expression, Experiment 2: control 261 ± 57; for LDL receptor expression, Experiment 1: control 283 ± 32; for effect on LDL binding / LDL receptor expression over control (in words): HepG2
# Method: Confluent human hepatoma (HepG2) cells were preincubated in the absence or presence of the test compound (Cpd. 7, Cpd. 8 and Cpd. 12 at final concentration of 50 nM, 500 nM and […]) for 48 hours, in complete DMEM medium containing 10% fetal bovine serum (FBS). Serum deprivation (i.e. 0.5% FBS) was used as a positive control to induce LDL receptor expression. Following preincubation, cells were washed before […] of [^125I]-LDL (specific activity 6.5-29.5 cpm/fmol) was added and the cells incubated at 4° C. for another 4 hours in the absence (for total binding) and presence of […] unlabelled LDL (to assess non-specific binding). Cells were then washed, lysed (0.1 M NaOH), and the radioactivity and protein content (BCA assay) of the lysate determined. The number of LDL receptors was determined from the specific binding (total binding minus non-specific binding), assuming one molecule of LDL binds per LDL receptor. Three independent experiments (each in triplicate) were performed with different batches of cells and [^125I]-LDL.
# To determine the concentration of LDL needed to reach binding saturation, confluent HepG2 cells were incubated in 12-well plates with increasing concentrations of [^125I]-LDL in the presence of excess (i.e., […]) unlabelled LDL. […] Using this concentration, the time required to reach saturation binding at 4° C. was determined to be approximately 4 hours. These established optimal conditions were used for all subsequent binding assays.
# [3] = system: Human umbilical vein endothelial cells; assay: Endothelial cell proliferation assay; format: cell-based; conditions: Cpd. 8 1-10 mg/ml; for endothelial cell proliferation (in words): 3 days, two donors, Cpd. 5, 7, 12 0.01-10 mg/ml; for toxicity to endothelial cells: Cpd. 12 0.01-10 mg/ml
# Method: Human umbilical vein endothelial cells between passage 1 and 3 were used. Cells were grown in gelatin coated flasks in medium 199 with Earle's Salts supplemented with 20% foetal calf serum, 25 mg/ml endothelial cell growth supplement and 25 mg/ml heparin. Cells from two different donors were used.
# 5×10^3 cells in […] growth medium were plated into gelatin coated microtitre wells. The test compounds were added at plating. The cells were then incubated for 3 days and cell number determined by a calorimetric assay (CellTiter96 Aqueous assay, Promega). Results were compared to a standard curve performed in each experiment. Two different endothelial cell isolates were used and the assays were performed on two different days. The effect of isoflavone derivatives on the proliferation of human umbilical vein endothelial cells are shown for donor No. 1 (FIG. 15) and donor No. 2 (FIG. 16).
# LDL = LDL antioxidation test (CuCl2-initiated LDL oxidation, lag time); format: biochemical, human; conditions: Table 3, 10 μM; for Lag Time: control 20 min
# LDL receptor [4] = assay: LDL receptor expression on HepG2 cells, [125I]-LDL specific binding; format: cell-based, human; conditions: 10 μM; for concentration dependence of LDL receptor expression: 50 nM, 500 nM; for LDL receptor expression, Experiment 3 / LDL receptor expression, Experiment 2 / LDL receptor expression, Experiment 1: 48 hours; for LDL receptor expression, Experiment 3: control 130 ± 18; for LDL receptor expression, Experiment 2: control 261 ± 57; for LDL receptor expression, Experiment 1: control 283 ± 32
Compound,vasodilatory response: effect of high KCl levels [1],vasodilatory response: effect of ODQ [1],vasodilatory response: effect of removal of the endothelium [1],vasodilatory response: effect of indomethacin [1],"LDL receptor expression, Experiment 3 (LDL receptor [2]; 50 nM)","LDL receptor expression, Experiment 2 (LDL receptor [2]; 50 nM)","LDL receptor expression, Experiment 1 (LDL receptor [2]; 50 nM, mean ± SD, n = 3)","LDL receptor expression, Experiment 3 (LDL receptor [2]; 500 nM)","LDL receptor expression, Experiment 2 (LDL receptor [2]; 500 nM)","LDL receptor expression, Experiment 1 (LDL receptor [2]; 500 nM)",effect on LDL binding / LDL receptor expression over control (in words) (LDL receptor [2]),endothelial cell proliferation (in words) [3],toxicity to endothelial cells [3],% Increase in Time (LDL),Lag Time (LDL),concentration dependence of LDL receptor expression (LDL receptor [4]),"LDL receptor expression, Experiment 3 (LDL receptor [4])","LDL receptor expression, Experiment 2 (LDL receptor [4])","LDL receptor expression, Experiment 1 (LDL receptor [4])",vasodilatory response: effect of nitro-L-arginine (NOLA) [1]
Oc1ccc(C2COc3cc(O)ccc3C2O)cc1 (centres unmarked) [Cpd. 8],inhibited,but not by ODQ,inhibited,potentiated,152 ± 24 fmol LDL receptors per mg cell protein,291 ± 66 fmol LDL receptors per mg cell protein,273 ± 22 fmol LDL receptors per mg cell protein,193 ± 18 fmol LDL receptors per mg cell protein,291 ± 52 fmol LDL receptors per mg cell protein,312 ± 42 fmol LDL receptors per mg cell protein,increased LDL binding,inhibited cellular proliferation,did not cause toxicity,>600%,>140 min,no clear concentration-dependent effect,143 ± 34 fmol LDL receptors per mg cell protein,273 ± 57 fmol LDL receptors per mg cell protein,315 ± 24 fmol LDL receptors per mg cell protein,–
Oc1ccc(C2COc3cc(O)ccc3C2O)cc1 (centres unmarked) [Cpd. 7],inhibited,inhibited,inhibited,did not influence,159 ± 30 fmol LDL receptors per mg cell protein,239 ± 49 fmol LDL receptors per mg cell protein,299 ± 45 fmol LDL receptors per mg cell protein,171 ± 14 fmol LDL receptors per mg cell protein,199 ± 58 fmol LDL receptors per mg cell protein,281 ± 22 fmol LDL receptors per mg cell protein,increased LDL binding,no appreciable antiproliferative action,–,100%,50 min,increased concentration-dependently,194 ± 46 fmol LDL receptors per mg cell protein,306 ± 70 fmol LDL receptors per mg cell protein,332 ± 46 fmol LDL receptors per mg cell protein,trend towards inhibition of these responses by NOLA but this was not statistically significant
O=C1c2ccc(O)cc2OCC1c1ccc(O)cc1 (centres unmarked) [Cpd. 5],inhibited,inhibited,inhibited,did not influence,–,–,–,–,–,–,–,no apparent effect on endothelial cell proliferation,–,0%,20 min,–,–,–,–,inhibited
Oc1ccc(C2=Cc3ccc(O)cc3OC2)cc1 [Cpd. 12],inhibited,–,inhibited,–,156 ± 24 fmol LDL receptors per mg cell protein,134 ± 52 fmol LDL receptors per mg cell protein,319 ± 43 fmol LDL receptors per mg cell protein,136 ± 23 fmol LDL receptors per mg cell protein,233 ± 40 fmol LDL receptors per mg cell protein,311 ± 35 fmol LDL receptors per mg cell protein,without consistent effect,inhibited cellular proliferation,did not cause toxicity,>600%,>140 min,–,174 ± 35 fmol LDL receptors per mg cell protein,161 ± 35 fmol LDL receptors per mg cell protein,290 ± 42 fmol LDL receptors per mg cell protein,–
